Laboratory results as given in the supplement of paper PMC10290057.
Structures can show the parent of a compound that is named as a salt.

What was measured:
HCT116 [1] = assay: AC50 cell viability (CellTiter-Glo); higher = less potent; details: 48 h
HCT116 [2] = assay: efficacy (fitted maximal change in viability relative to DMSO control); higher = less cytotoxic (negative = loss of viability); details: 48 h
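Wherever AC50 cell viability (CellTiter-Glo) is given: HCT116 colorectal carcinoma cells screened at five concentrations per compound, luminescent viability scaled between DMSO wells and empty wells on each plate, curves fitted per compound.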
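Wherever efficacy (fitted maximal change in viability relative to DMSO control) is given: Luminescence-based viability readout, five doses per compound, normalized against on-plate DMSO and empty-well controls, followed by dose-response curve fitting for every drug.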

Compound | AC50 cell viability (HCT116 [1]) [µM] | efficacy (HCT116 [2]) [%]
COc1cc2c(Nc3ccc(Cl)c(Cl)c3F)ncnc2cc1OC[C@@H]1C[C@@H]2CN(C)C[C@@H]2C1 [XL647] | 11.8 | -113
CC1(CN2CCC(n3c(=O)[nH]c4ccccc43)CC2)OCc2ccccc2-n2cccc21 (stereo unspecified) [Zaldaride maleate] | 20.9 | -74.1
CN1CCN(CCCN2c3ccccc3Sc3ccc(C(F)(F)F)cc32)CC1 [Trifluoperazine hydrochloride] | 26.3 | -119
CC(C)NC(=O)[C@H]1CC[C@@H](n2c(NC(=O)c3ccc(F)cc3)nc3ccc(CN4CCC(C(C)(C)O)CC4)cc32)CC1 [Belizatinib] | 7.23 | -92.8
Nc1n[nH]c2nnc(-c3c(-c4ccccc4)nn4ccccc34)cc12 | 18.6 | -41.3
NC(=O)c1cnc(N[C@@H]2CCCC[C@@H]2N)nc1Nc1cccc(-n2nccn2)c1 | 10.5 | -90.7
CCOc1cc(C(=O)Nc2ccc(Cl)c(-c3nc4ccccc4[nH]3)c2)cc(OCC)c1OCC [SANT-2] | 2.63 | -37.4
COc1c(C)cnc(Cn2cnc3c(Cl)nc(N)nc32)c1C [CNF-2024] | 0.148 | -57
O=C(NC[C@H](O)CO)c1ccncc1Nc1ccc(I)cc1F [Pimasertib] | 0.118 | -44.3
COc1ccc2cc(-c3[nH]c(-c4ccc([S+](C)[O-])cc4)nc3-c3ccncc3)ccc2c1 (stereo unspecified) [Tie-2 kinase Inhibitor] | 23.5 | -89.1
CCN1CCN(Cc2ccc(-c3cc4c(N[C@H](C)c5ccccc5)ncnc4[nH]3)cc2)CC1 [AEE-788] | 16.6 | -97.5
CCc1cccc(CC)c1NC(=O)N1Cc2[nH]nc(NC(=O)c3ccc(N4CCN(C)CC4)cc3)c2C1 | 11.8 | -88.9
CNC(=O)[C@H]1O[C@@H](n2cnc3c(NCc4cccc(I)c4)nc(Cl)nc32)[C@H](O)[C@@H]1O [Namodenoson] | 23.5 | -94.8
COC(=O)[C@@]12OC[C@]34[C@H]([C@@H](O)[C@@H]1O)[C@@]1(C)CC(=O)C(O)=C(C)[C@@H]1C[C@H]3OC(=O)[C@H](OC(=O)/C=C(\C)C(C)C)[C@@H]24 [Bruceantin] | 0.00833 | -71.9
c1ccc(-c2ccc(CNc3nc(-c4ccccn4)nnc3-c3ccccc3)cc2)cc1 [ML-228] | 1.48 | -77
[O-][S+]1(=O)/N=C(/NC2=CC(=CC=C2)NC(=O)CCl)C3=CC=CC=C13 [NMS-859] | 26.3 | -85.1
CCNC(=O)Nc1ccc(-c2nc3c(c(N4CCOC[C@@H]4C)n2)CCN(C2COC2)C3)cc1 [GDC-0349] | 3.32 | -46.9
Cc1cc(-c2cnn3c(NC[C@H]4C[C@@](C)(O)C4)cc(Oc4cccnc4)nc23)ccc1C(=O)NC1CC1 | 0.934 | -56.6
COc1cc(C(=O)N2CC[C@@H](O)[C@@H](N)C2)cc2nc(-c3cc4ccccc4n3CC3CC3)n(C)c12 [GSK-484] | 23.5 | -94.1
OCCC#Cc1nc(-c2ccc(F)cc2)c(-c2ccncc2)n1CCCc1ccccc1 | 23.5 | -64.2
CC(=O)N(O)CCCCCNC(=O)CCC(=O)N(O)CCCCCNC(=O)CCC(=O)N(O)CCCCCN [Deferoxamine mesylate] | 9.34 | -95.9
CC(C)[C@]12O[C@H]1[C@@H]3O[C@@]34[C@@]5(C)CC\C6=C(COC6=O)/[C@@H]5C[C@@H]7O[C@]47[C@@H]2O [Triptolide] | 0.0235 | -52.7
COc1cc(OC)cc(N(CCNC(C)C)c2ccc3ncc(-c4cnn(C)c4)nc3c2)c1 [Erdafitinib] | 13.2 | -123
